Results: patent publication US12152012B2, “BRAG2 inhibitors and applications thereof” (CENTRE NATIONAL DE LA RECHERCHE SCIENTIFIQUE, priority 2018, dated 2024)

Experiments:
ARNO (Sec7PH construct) = target: T1, ARNO (Sec7PH construct) (Homo sapiens, UniProt Q99418); test: Nucleotide exchange kinetics on liposomes, activation of myristoylated Arf1; assay type: biochemical; conditions: 50 μM
T1 construct: BIG1^DcbHusSec7 (2-888) and ARNO^Sec7PH (50-399); made in house
T1 sequence (Q99418 50-399 isoform Q99418-2): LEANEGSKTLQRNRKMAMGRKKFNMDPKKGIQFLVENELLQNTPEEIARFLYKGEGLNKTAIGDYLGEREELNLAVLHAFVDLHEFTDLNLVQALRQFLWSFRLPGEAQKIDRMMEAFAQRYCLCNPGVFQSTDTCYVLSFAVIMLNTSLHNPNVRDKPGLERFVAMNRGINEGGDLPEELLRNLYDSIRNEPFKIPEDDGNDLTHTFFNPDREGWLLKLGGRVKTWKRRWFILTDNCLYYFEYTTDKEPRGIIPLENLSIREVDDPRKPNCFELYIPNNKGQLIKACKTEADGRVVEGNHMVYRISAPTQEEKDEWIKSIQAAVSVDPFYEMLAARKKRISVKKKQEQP

Sec7 domain of EFA6a = target: T2, Sec7 domain of EFA6a (Homo sapiens, UniProt A5PKW4); test: Nucleotide exchange fluorescence kinetics in solution, Sec7 domain with truncated Arf1; assay type: biochemical; conditions: 50 μM, no membranes
T2 construct: human EFA6^Sec7 (527-727) and EFA6^Sec7PHCt (527-1024); made in house
T2 sequence (A5PKW4 527-727): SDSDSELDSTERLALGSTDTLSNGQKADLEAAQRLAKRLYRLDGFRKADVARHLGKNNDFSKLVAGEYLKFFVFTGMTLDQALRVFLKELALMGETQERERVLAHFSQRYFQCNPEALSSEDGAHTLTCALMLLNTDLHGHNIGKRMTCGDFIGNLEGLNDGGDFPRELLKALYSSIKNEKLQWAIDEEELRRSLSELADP
Protocol: The effect of Bragsin1 on the GEF efficiency of representative human ArfGEFs was evaluated by fluorescence kinetics using highly purified recombinant Arf GTPases and ArfGEFs. In a first series of assays, the Sec7 domains of BIG1, a Golgi ArfGEF, and of ARNO, EFA6a and BRAG2, which function at the plasma membrane, were used. When tested in solution, Bragsin1 had no effect on the activation of Arf1 by any of these Sec7 domains (FIGS. 2a and 14). Separately, we reconstituted the activation of myristoylated Arf1 by the same ArfGEFs on liposomes using ArfGEF constructs that contain a membrane-binding domain (DCB-HUS domain for BIG1, PH domains for the other GEFs). […] BRAG2 activates several Arf isoforms, including the plasma membrane-located Arf6 isoform. […] Bragsin1 and Bragsin2 have the same IC50 towards BRAG2 ([…]) according to dose-response analysis, confirming that Bragsin1 and Bragsin2 can be used interchangeably (FIG. 2d). The specific inhibition of BRAG2 by Bragsin in vitro predicts that BRAG2 silencing by siRNA should yield the same phenotype as treatment by the small molecule. Silencing of BRAG2 induced the redistribution of TGN46 into tubular or punctate structures, which phenocopied the effects induced by Bragsin (FIGS. 2e, 17 and 18). […] Silencing of ARNO, which is located at the plasma membrane, had no effect on TGN46 distribution. Overexpression of BRAG2-mCherry rescued the dispersion of the TGN46 structure induced by Bragsin, which is consistent with the silencing experiments (FIG. 2f). Bragsin is a specific inhibitor of the ArfGEF BRAG2 in vitro and in cells according to these experiments. These oexperiments identify a mechanism of inhibition that requires the membrane to manifests itself. […]
Nucleotide exchange kinetics were monitored by tryptophan fluorescence with excitation/emission wavelengths of 292/340 nm using a Cary Eclipse fluorimeter (Varian) at 37° C. and under continuous stirring as described in ^50,51. For specificity assays, 50 μM of Bragsin1 or 0.25% DMSO were incubated for 2 min at 37° C. in HKM buffer (50 mM HEPES pH 7.4, 120 mM potassium acetate, 1 mM MgCl2 and 1 mM DTT) with either 1 μM of N-terminally truncated Arf-GDP and 100 nM of indicated Sec7 domain (in solution) or 0.4 μM of ^myrArf1 in the presence of 100 μM of liposomes and 2 to 100 nM of ArfGEFs as described in (Benabdi, S. et al. Biochemistry 56, 5125-5133 (2017) and Peurois, F. et al. Biochem J 474, 1259-1272 (2017). Nucleotide exchange rates (kobs) were determined from monoexponential fits and means are given as the percentage of control activity±SD. […]

## Cc1ccc2oc(C(F)(F)F)cc(=O)c2c1[N+](=O)[O-] [Bragsin1, 6-methyl-5-nitro-2-(trifluoromethyl)-4H-chromen-4-one]
ARNO (Sec7PH construct)
  Effect on ArfGEF activity on liposomes: no effect
Sec7 domain of EFA6a
  Effect on activation of Arf1 by Sec7 domain in solution: no effect
